Laboratory results from PubChem BioAssay AID248 (DTP/NCI, 2004).
“And” between values parts separate entries of the source, which are not always exact repeats. Equal values may be shown once. Inconclusive results and toxic doses are left out. Cut-off read from the data, not from the text of the source: active = T/C of 150% or more; inactive = T/C below 125%.

System: L1210 leukemia ip in BDF1 mice, survival T/C
Test: NCI In Vivo Anticancer Drug Screen. Data for tumor model L1210 Leukemia (intraperitoneal) in B6D2F1 (BDF1) mice
Conditions: higher = longer survival
Outline: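 Transplanted-tumor mice were given test agent; controls received vehicle only. Survival readings from the two groups were divided (treated over control).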

[1] = endpoint: mean survival time, dose: 100.0 mg/kg/injection, schedule: Q01DX001 (sc), vehicle: steriod suspending solution
[2] = endpoint: mean survival time, dose: 200.0 mg/kg/injection, schedule: Q01DX001 (sc), vehicle: steriod suspending solution
[3] = endpoint: mean survival time, dose: 400.0 mg/kg/injection, schedule: Q01DX001 (sc), vehicle: steriod suspending solution
[4] = endpoint: mean survival time, dose: 100.0 mg/kg/injection, schedule: Q01DX009 (ip), vehicle: Klucel (hydroxypropylcellulose) (HPC)
[5] = endpoint: mean survival time, dose: 200.0 mg/kg/injection, schedule: Q01DX009 (ip), vehicle: Klucel (hydroxypropylcellulose) (HPC)
[6] = endpoint: mean survival time, dose: 400.0 mg/kg/injection, schedule: Q01DX009 (ip), vehicle: Klucel (hydroxypropylcellulose) (HPC)

Measured: T/C

C[C@]12C=CC(=O)C=C1CC[C@H]1[C@@H]3C[C@@H](O)[C@](O)(C(=O)CO)[C@@]3(C)C[C@H](O)[C@@]12F
inactive: endpoint: mean survival time, dose: 50.0 mg/kg/injection, schedule: Q04DX003 (sc), vehicle: steriod suspending solution 102 % of control | [1] 105 % of control | endpoint: mean survival time, dose: 100.0 mg/kg/injection, schedule: Q04DX003 (sc), vehicle: steriod suspending solution 97 % of control | [2] 107 % of control | endpoint: mean survival time, dose: 200.0 mg/kg/injection, schedule: Q04DX003 (sc), vehicle: steriod suspending solution 106 % of control | [3] 105 % of control | endpoint: mean survival time, dose: 400.0 mg/kg/injection, schedule: Q04DX003 (sc), vehicle: steriod suspending solution 110 % of control

S=C(Nc1ccc(Cl)c(Cl)c1)SCc1ccc(Cl)cc1
inactive: endpoint: mean survival time, dose: 25.0 mg/kg/injection, schedule: Q04DX003 (ip), vehicle: saline 104 % of control | endpoint: mean survival time, dose: 50.0 mg/kg/injection, schedule: Q04DX003 (ip), vehicle: saline 101 % of control | endpoint: mean survival time, dose: 100.0 mg/kg/injection, schedule: Q04DX003 (ip), vehicle: saline 104 % of control

C=CCCN1CCCC1
inactive: endpoint: mean survival time, dose: 1.5 mg/kg/injection, schedule: Q01DX009 (ip), vehicle: saline with Tween-80 100 % of control | endpoint: mean survival time, dose: 3.0 mg/kg/injection, schedule: Q01DX009 (ip), vehicle: saline with Tween-80 93 % of control | endpoint: mean survival time, dose: 6.0 mg/kg/injection, schedule: Q01DX009 (ip), vehicle: saline with Tween-80 103 % of control | endpoint: mean survival time, dose: 8.0 mg/kg/injection, schedule: Q04DX003 (ip), vehicle: saline with Tween-80 97 % of control and 105 % of control | endpoint: mean survival time, dose: 12.0 mg/kg/injection, schedule: Q01DX009 (ip), vehicle: saline with Tween-80 98 % of control | endpoint: mean survival time, dose: 12.0 mg/kg/injection, schedule: Q04DX003 (ip), vehicle: saline with Tween-80 100 % of control and 105 % of control | endpoint: mean survival time, dose: 18.0 mg/kg/injection, schedule: Q04DX003 (ip), vehicle: saline with Tween-80 103 % of control and 110 % of control | endpoint: mean survival time, dose: 25.0 mg/kg/injection, schedule: Q01DX009 (ip), vehicle: saline with Tween-80 88 % of control | endpoint: mean survival time, dose: 25.0 mg/kg/injection, schedule: Q04DX003 (ip), vehicle: saline with Tween-80 103 % of control | endpoint: mean survival time, dose: 50.0 mg/kg/injection, schedule: Q04DX003 (ip), vehicle: saline with Tween-80 109 % of control

CC(=O)O[C@]1(C(C)=O)CC[C@H]2[C@@H]3C[C@H](C)C4=CC(=O)CC[C@]4(C)[C@H]3CC[C@@]21C
inactive: endpoint: mean survival time, dose: 50.0 mg/kg/injection, schedule: Q01DX009 (ip), vehicle: Klucel (hydroxypropylcellulose) (HPC) 109 % of control | [1] 102 % of control | [4] 101 % of control | [2] 108 % of control | [5] 103 % of control | endpoint: mean survival time, dose: 200.0 mg/kg/injection, schedule: Q01DX009 (sc), vehicle: steriod suspending solution 91 % of control | [3] 102 % of control | [6] 100 % of control | endpoint: mean survival time, dose: 400.0 mg/kg/injection, schedule: Q01DX009 (sc), vehicle: steriod suspending solution 94 % of control | endpoint: mean survival time, dose: 600.0 mg/kg/injection, schedule: Q01DX009 (sc), vehicle: steriod suspending solution 96 % of control | endpoint: mean survival time, dose: 800.0 mg/kg/injection, schedule: Q01DX009 (ip), vehicle: Klucel (hydroxypropylcellulose) (HPC) 104 % of control | endpoint: mean survival time, dose: 800.0 mg/kg/injection, schedule: Q01DX009 (sc), vehicle: steriod suspending solution 91 % of control | endpoint: mean survival time, dose: 1000.0 mg/kg/injection, schedule: Q01DX009 (sc), vehicle: steriod suspending solution 94 % of control | endpoint: median survival time, dose: 16.0 mg/kg/injection, schedule: Q03HX008 (ip), vehicle: Klucel (hydroxypropylcellulose) (HPC) 97 % of control | endpoint: median survival time, dose: 16.0 mg/kg/injection, schedule: Q03HX016 (ip), vehicle: Klucel (hydroxypropylcellulose) (HPC) 94 % of control | endpoint: median survival time, dose: 16.0 mg/kg/injection, schedule: Q03HX024 (ip), vehicle: Klucel (hydroxypropylcellulose) (HPC) 96 % of control | endpoint: median survival time, dose: 32.0 mg/kg/injection, schedule: Q03HX008 (ip), vehicle: Klucel (hydroxypropylcellulose) (HPC) 96 % of control | endpoint: median survival time, dose: 32.0 mg/kg/injection, schedule: Q03HX016 (ip), vehicle: Klucel (hydroxypropylcellulose) (HPC) 94 % of control | endpoint: median survival time, dose: 32.0 mg/kg/injection, schedule: Q03HX024 (ip), vehicle: Klucel (hydroxypropylcellulose) (HPC) 95 % of control | endpoint: median survival time, dose: 64.0 mg/kg/injection, schedule: Q01DX009 (ip), vehicle: Klucel (hydroxypropylcellulose) (HPC) 107 % of control | endpoint: median survival time, dose: 64.0 mg/kg/injection, schedule: Q03HX008 (ip), vehicle: Klucel (hydroxypropylcellulose) (HPC) 93 % of control | endpoint: median survival time, dose: 64.0 mg/kg/injection, schedule: Q03HX016 (ip), vehicle: Klucel (hydroxypropylcellulose) (HPC) 94 % of control | endpoint: median survival time, dose: 64.0 mg/kg/injection, schedule: Q03HX024 (ip), vehicle: Klucel (hydroxypropylcellulose) (HPC) 93 % of control | endpoint: median survival time, dose: 128.0 mg/kg/injection, schedule: Q01DX001 (ip), vehicle: Klucel (hydroxypropylcellulose) (HPC) 100 % of control | endpoint: median survival time, dose: 128.0 mg/kg/injection, schedule: Q01DX009 (ip), vehicle: Klucel (hydroxypropylcellulose) (HPC) 105 % of control | endpoint: median survival time, dose: 128.0 mg/kg/injection, schedule: Q03HX008 (ip), vehicle: Klucel (hydroxypropylcellulose) (HPC) 93 % of control | endpoint: median survival time, dose: 128.0 mg/kg/injection, schedule: Q03HX016 (ip), vehicle: Klucel (hydroxypropylcellulose) (HPC) 93 % of control | endpoint: median survival time, dose: 128.0 mg/kg/injection, schedule: Q04DX003 (ip), vehicle: Klucel (hydroxypropylcellulose) (HPC) 102 % of control | endpoint: median survival time, dose: 128.0 mg/kg/injection, schedule: Q08DX002 (ip), vehicle: Klucel (hydroxypropylcellulose) (HPC) 100 % of control | endpoint: median survival time, dose: 256.0 mg/kg/injection, schedule: Q01DX001 (ip), vehicle: Klucel (hydroxypropylcellulose) (HPC) 96 % of control | endpoint: median survival time, dose: 256.0 mg/kg/injection, schedule: Q01DX009 (ip), vehicle: Klucel (hydroxypropylcellulose) (HPC) 104 % of control | endpoint: median survival time, dose: 256.0 mg/kg/injection, schedule: Q04DX003 (ip), vehicle: Klucel (hydroxypropylcellulose) (HPC) 105 % of control | endpoint: median survival time, dose: 256.0 mg/kg/injection, schedule: Q08DX002 (ip), vehicle: Klucel (hydroxypropylcellulose) (HPC) 108 % of control | endpoint: median survival time, dose: 512.0 mg/kg/injection, schedule: Q01DX001 (ip), vehicle: Klucel (hydroxypropylcellulose) (HPC) 100 % of control | endpoint: median survival time, dose: 512.0 mg/kg/injection, schedule: Q01DX009 (ip), vehicle: Klucel (hydroxypropylcellulose) (HPC) 100 % of control | endpoint: median survival time, dose: 512.0 mg/kg/injection, schedule: Q04DX003 (ip), vehicle: Klucel (hydroxypropylcellulose) (HPC) 98 % of control | endpoint: median survival time, dose: 512.0 mg/kg/injection, schedule: Q08DX002 (ip), vehicle: Klucel (hydroxypropylcellulose) (HPC) 100 % of control | endpoint: median survival time, dose: 1024.0 mg/kg/injection, schedule: Q01DX001 (ip), vehicle: Klucel (hydroxypropylcellulose) (HPC) 102 % of control | endpoint: median survival time, dose: 1024.0 mg/kg/injection, schedule: Q01DX009 (ip), vehicle: Klucel (hydroxypropylcellulose) (HPC) 105 % of control | endpoint: median survival time, dose: 1024.0 mg/kg/injection, schedule: Q04DX003 (ip), vehicle: Klucel (hydroxypropylcellulose) (HPC) 114 % of control | endpoint: median survival time, dose: 1024.0 mg/kg/injection, schedule: Q08DX002 (ip), vehicle: Klucel (hydroxypropylcellulose) (HPC) 97 % of control | endpoint: median survival time, dose: 2048.0 mg/kg/injection, schedule: Q01DX001 (ip), vehicle: Klucel (hydroxypropylcellulose) (HPC) 92 % of control | endpoint: median survival time, dose: 2048.0 mg/kg/injection, schedule: Q08DX002 (ip), vehicle: Klucel (hydroxypropylcellulose) (HPC) 95 % of control

CC(C)(COS(C)(=O)=O)COS(C)(=O)=O
inactive: endpoint: mean survival time, dose: 50.0 mg/kg/injection, schedule: Q01DX001 (ip), vehicle: Klucel (hydroxypropylcellulose) (HPC) 95 % of control | endpoint: mean survival time, dose: 100.0 mg/kg/injection, schedule: Q01DX001 (ip), vehicle: Klucel (hydroxypropylcellulose) (HPC) 93 % of control | endpoint: mean survival time, dose: 200.0 mg/kg/injection, schedule: Q01DX001 (ip), vehicle: Klucel (hydroxypropylcellulose) (HPC) 93 % of control | endpoint: mean survival time, dose: 400.0 mg/kg/injection, schedule: Q01DX001 (ip), vehicle: Klucel (hydroxypropylcellulose) (HPC) 101 % of control

N#C/C(=C\c1cccc2ccccc12)c1ccccc1
inactive: endpoint: mean survival time, dose: 25.0 mg/kg/injection, schedule: Q04DX002 (ip), vehicle: Klucel (hydroxypropylcellulose) (HPC) 92 % of control | endpoint: mean survival time, dose: 50.0 mg/kg/injection, schedule: Q04DX002 (ip), vehicle: Klucel (hydroxypropylcellulose) (HPC) 98 % of control | [4] 95 % of control | endpoint: mean survival time, dose: 100.0 mg/kg/injection, schedule: Q04DX002 (ip), vehicle: Klucel (hydroxypropylcellulose) (HPC) 95 % of control | [5] 93 % of control | [6] 100 % of control

COP(=O)(OC)C1CC2CCC1C2 (stereo unspecified)
inactive: endpoint: mean survival time, dose: 100.0 mg/kg/injection, schedule: Q04DX003 (ip), vehicle: acetone 102 % of control | endpoint: mean survival time, dose: 200.0 mg/kg/injection, schedule: Q04DX003 (ip), vehicle: acetone 102 % of control | endpoint: mean survival time, dose: 400.0 mg/kg/injection, schedule: Q04DX003 (ip), vehicle: acetone 100 % of control
